Assay results taken from US6124380A, “Metal containing e-coat catalysts optionally with tin catalysts” (priority 1999, dated 2000).

Columns and labels:
Rats = assay: Acute Oral toxicity; format: in vivo
Excerpt: (§1) Generally, the toxicity of tin compounds increases as the organic substituents on the tin atom increase from one to two to three whereas there is a decrease in toxicity with increasing alkyl chain length where the organotin compound is alkyl substituted. However, the extraordinary decrease in toxicity in TOTO due to alkyl chain length is quite unexpected. The relatively low toxicity of TOTO which makes it especially suitable in industrial coating applications is illustrated by the following: […]

Acute Dermal toxicity = format: in vivo
Excerpt: as §1

Rabbits [1] = assay: Primary Dermal Irritation; format: in vivo
Excerpt: as §1

Rabbits [2] = assay: Primary Eye Irritation; format: in vivo
Excerpt: as §1

Salmonella and E. Coli = assay: Mutation Assays Ames/Salmonella and E. Coli; format: cell-based
Excerpt: as §1

Daphnia = assay: Aquatic Toxicity Daphnia; format: in vivo
Excerpt: as §1

Flathead Minnow = assay: Aquatic Toxicity Flathead Minnow; format: in vivo
Excerpt: as §1

[3] = Toxicity of TOTO compared with TBTO; conditions: in vivo
Excerpt: as §1

SMILES	Acute Oral LD50 (Rats) [mg/kg]	Acute Oral, comment (Rats)	Acute Dermal, comment (Acute Dermal toxicity; No more than Slightly)	Acute Dermal LD50 (Acute Dermal toxicity; in vivo, topical or ocular) [mg/kg]	Primary Dermal Irritation, comment (Rabbits [1]; rabbits)	Primary Dermal Irritation (Rabbits [1]; score out of 8.0, rabbits)	Primary Eye Irritation, comment (Rabbits [2]; rabbits)	Primary Eye Irritation (Rabbits [2]; score out of 110.0, rabbits)	Mutation Assays (Salmonella and E. Coli)	Aquatic Toxicity 48 h LC50 Daphnia (Daphnia; solubility limit)	Aquatic Toxicity 96 h LC50 Flathead Minnow (Flathead Minnow; solubility limit)	Toxicity relative to TBTO [3]	Aquatic Toxicity 48 h LC50 Daphnia (comment, TBTO) (Daphnia) [µg/mL]	Aquatic Toxicity 96 h LC50 Flathead Minnow (comment, TBTO) (Flathead Minnow) [µg/mL]
CCCCCCC[CH2][Sn]([CH2]CCCCCCC)([CH2]CCCCCCC)[O][Sn]([CH2]CCCCCCC)([CH2]CCCCCCC)[CH2]CCCCCCC [TOTO, Bis(trioctyltin)oxide]	> 5000	Practically Nontoxic	Slightly	> 2000	Slightly Irritating	1.75	Slightly Irritating	2.6	Not Mutagenic	> 87,000 ug/L	> 13,500 ug/L	significantly less toxic than TBTO		
CCC[CH2][Sn]([CH2]CCC)([CH2]CCC)[O][Sn]([CH2]CCC)([CH2]CCC)[CH2]CCC [TBTO, Bis(tributyltin) oxide]													0.002	0.05
